Like-named read-outs stand apart in the source and are kept apart here.
What was measured:
Format in all cases: cell-based
[1] = system: Hep3B cells (hepatocellular carcinoma cell line); test: In vitro MTS cell viability assay (NCI-60 methodology), Hep3B; conditions: Homo sapiens, 48 h, 2 days drug incubation, 50% reduction vs time zero, read-out: Hep3B LC50
In short: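 Hep3B cells given five 2-fold dilutions of compound for 2 days, with viability by MTS measured at time zero and at end. LC50 is the concentration giving a 50% fall in viable cells relative to the start of treatment, per NCI-60 formula.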

[2] = system: SW480 (colon adenocarcinoma cell line); test: In vitro MTS cell viability assay (NCI-60 methodology), SW480; conditions: Homo sapiens, SW480 cells, read-out: SW480 LC50
In short: (§1)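 NCI-60 style: compound added 24 h post-plating at five 2-fold dilutions plus DMSO control, then 2 days' incubation, MTS read-out. Time-zero plate gives Tz; LC50 is the concentration where [(Ti−Tz)/Tz]×100=−50.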

[3] = system: NCI-H460 (human lung cancer cell line); test: In vitro MTS cell viability assay (NCI-60 methodology), NCI-H460; conditions: NCI-H460 cells, read-out: NCI-H460 LC50
In short: as §1

For `O=C(Nc1nc(-c2ccc(F)c(F)c2)nc2c1cnn2-c1ccc(F)cc1)c1ccc([N+](=O)[O-])s1` [Compound 6-125, N-(6-(3,4-difluorophenyl)-1-(4-fluorophenyl)-1H-pyrazolo[3,4-d]pyrimidin-4-yl)-5-nitrothiophen-2-carboxamide], the LC50 ([1]; Table 6, MTS) was 0.1 µM, the CC50 [2] was 2.28 µM and the CC50 [3] was 0.35 µM.
Work on `O=C(Nc1nc(-c2ccc(Cl)c(F)c2)nc2c1cnn2-c1ccc(F)cc1)c1ccc([N+](=O)[O-])s1` [Compound 6-127] yielded an LC50 ([1]; Table 6, MTS) of 0.15 µM, a CC50 [2] of 1.06 µM and a CC50 [3] of 0.45 µM.
`COc1ccc(-n2ncc3c(NC(=O)c4ccc([N+](=O)[O-])s4)nc(-c4ccc(F)cc4)nc32)cc1` [Compound 6-18, N-(6-(4-fluorophenyl)-1-(4-methoxyphenyl)-1H-pyrazolo[3,4-d]pyrimidin-4-yl)-5-nitrothiophene-2-carboxamide] was tested, and the LC50 ([1]; Table 6, MTS) was 0.18 µM, the CC50 [2] was 1.24 µM and the CC50 [3] was 0.27 µM.
Work on `CC(C)(C)n1ncc2c(NC(=O)c3ccc([N+](=O)[O-])s3)nc(-c3ccc(OC(F)(F)F)cc3)nc21` [Compound 1-27, N-(1-(tert-butyl)-6-(4-(trifluoromethoxy)phenyl)-1H-pyrazolo[3,4-d]pyrimidin-4-yl)-5-nitrothiophene-2-carboxamide] yielded an LC50 ([1]; Table 1, MTS) of 0.61 µM, a CC50 [2] of 4.14 µM and a CC50 [3] of 1.99 µM.
Compound `O=C(Nc1nc(-c2ccc(Cl)nc2)nc2c1cnn2C1CCCCC1)c1ccc([N+](=O)[O-])s1` [Compound 10-18, N-(6-(6-chloropyridin-3-yl)-1-cyclohexyl-1H-pyrazolo[3,4-d]pyrimidin-4-yl)-5-nitrothiophene-2-carboxamide] has an LC50 ([1]; Table 10, MTS) of 0.68 µM, a CC50 [2] of 0.95 µM and a CC50 [3] of 0.85 µM.
`O=C(Nc1nc(-c2cccc(Cl)c2)nc2c1cnn2-c1ccccc1)c1ccc([N+](=O)[O-])s1` [Compound 5-29, N-(6-(3-chlorophenyl)-1-phenyl-1H-pyrazolo[3,4-d]pyrimidin-4-yl)-5-nitrothiophene-2-carboxamide] was tested, and the LC50 ([1]; Table 5, MTS) was 0.21 µM, the CC50 [2] was 0.66 µM and the CC50 [3] was 0.95 µM.
`O=C(Nc1nc(-c2ccc(Cl)cc2)nc2c1cnn2-c1ccc(C(F)(F)F)cn1)c1ccc([N+](=O)[O-])s1` [Compound 7-3, N-(6-(4-chlorophenyl)-1-(5-(trifluoromethyl)pyridin-2-yl)-1H-pyrazolo[3,4-1]pyrimidin-4-yl)-5-nitrothiophene-2-carboxamide] showed an LC50 ([1]; Table 7, MTS) of 0.13 µM, a CC50 [2] of 0.53 µM and a CC50 [3] of 0.4 µM.
For `O=C(Nc1nc(-c2ccc(F)cc2)nc2c1cnn2-c1ccc(C(F)(F)F)cn1)c1ccc([N+](=O)[O-])s1` [Compound 7-1, N-(6-(4-fluorophenyl)-1-(5-(trifluoromethyl)pyridin-2-yl)-1H-pyrazolo[3,4-d]pyrimidin-4-yl)-5-nitrothiophene-2-carboxamide], the LC50 ([1]; Table 7, MTS) was 0.26 µM, the CC50 [2] was over 20 µM and the CC50 [3] was 8.63 µM.
For `O=C(Nc1nc(-c2ccc(F)c(F)c2)nc2c1cnn2C1CCCCC1)c1ccc([N+](=O)[O-])s1` [Compound 10-40, N-(1-cyclohexyl-6-(3,4-difluorophenyl)-1H-pyrazolo[3,4-d]pyrimidin-4-yl)-5-nitrothiophene-2-carboxamide], the LC50 ([1]; Table 10, MTS) was 0.32 µM, the CC50 [2] was 1.04 µM and the CC50 [3] was 1.16 µM.
For `O=C(Nc1nc(-c2ccccc2)nc2c1cnn2-c1ccc(F)cc1)c1ccc([N+](=O)[O-])s1` [Compound 6-110, N-(1-(4-fluorophenyl)-6-phenyl-1H-pyrazolo[3,4-d]pyrimidin-4-yl)-5-nitrothiophene-2-carboxamide], the LC50 ([1]; Table 6, MTS) was 0.23 µM, the CC50 [2] was 1.25 µM and the CC50 [3] was 1.41 µM.
Work on `O=C(Nc1nc(-c2ccc(F)nc2)nc2c1cnn2-c1cccc(F)c1)c1ccc([N+](=O)[O-])s1` [Compound 6-90, N-(1-(3-fluorophenyl)-6-(6-fluoropyridin-3-yl)-1H-pyrazolo[3,4-d]pyrimidin-4-yl)-5-nitrothiophene-2-carboxamide] yielded an LC50 ([1]; Table 6, MTS) of 0.14 µM, a CC50 [2] of 0.54 µM and a CC50 [3] of 0.56 µM.
With `COc1nc(NC(=O)c2ccc([N+](=O)[O-])s2)c2cnn(-c3ccc(C(C)(C)C)cc3)c2n1` [Compound 6-57, N-(1-(4-(tert-butyl)phenyl)-6-methoxy-1H-pyrazolo[3,4-d]pyrimidin-4-yl)-5-nitrothiophene-2-carboxamide] the LC50 ([1]; Table 6, MTS) was 0.7 µM, the CC50 [2] was 1.24 µM and the CC50 [3] was 2.75 µM.
For `O=C(Nc1nc(-c2ccc(F)cc2)nc2c1cnn2-c1ccc(F)cc1)c1ccc([N+](=O)[O-])s1` [Compound 6-115, N-(1,6-bis(4-fluorophenyl)-1H-pyrazolo[3,4-d]pyrimidin-4-yl)-5-nitrothiophene-2-carboxamide], the LC50 ([1]; Table 6, MTS) was 0.22 µM, the CC50 [2] was 1.91 µM and the CC50 [3] was 1.13 µM.
For `O=C(Nc1nc(-c2cccc(F)c2)nc2c1cnn2-c1ccc(F)cc1)c1ccc([N+](=O)[O-])s1` [Compound 6-114, N-(6-(3-fluorophenyl)-1-(4-fluorophenyl)-1H-pyrazolo[3,4-d]pyrimidin-4-yl)-5-nitrothiophene-2-carboxamide], the LC50 ([1]; Table 6, MTS) was 0.2 µM, the CC50 [2] was 0.84 µM and the CC50 [3] was 0.35 µM.
Compound `CN(C)CCOc1ccc(-c2nc(NC(=O)c3ccc([N+](=O)[O-])s3)c3cnn(-c4ccc(F)cc4)c3n2)cn1` [Compound 6-130, N-(6-(6-(2-(dimethylamino)ethoxy)pyridin-3-yl)-1-(4-fluorophenyl)-1H-pyrazolo[3,4-d]pyrimidin-4-yl)-5-nitrothiophene-2-carboxamide] has an LC50 ([1]; Table 6, MTS) of 0.26 µM, a CC50 [2] of 2.9 µM and a CC50 [3] of 3.81 µM.
`O=C(Nc1nc(-c2ccc(Cl)cc2F)nc2c1cnn2-c1ccccc1)c1ccc([N+](=O)[O-])s1` [Compound 5-47, N-(6-(4-chloro-2-fluorophenyl)-1-phenyl-1H-pyrazolo[3,4-d]pyrimidin-4-yl)-5-nitrothiophene-2-carboxamide] showed an LC50 ([1]; Table 5, MTS) of 0.13 µM, a CC50 [2] of 0.61 µM and a CC50 [3] of 0.29 µM.
Compound `O=C(Nc1nc(-c2ccc(F)nc2)nc2c1cnn2-c1cccc(Cl)c1)c1ccc([N+](=O)[O-])s1` [Compound 6-36, N-(1-(3-chlorophenyl)-6-(6-fluoropyridin-3-yl)-1H-pyrazolo[3,4-d]pyrimidin-4-yl)-5-nitrothiophene-2-carboxamide] has an LC50 ([1]; Table 6, MTS) of 0.09 µM, a CC50 [2] of 2.8 µM and a CC50 [3] of 0.67 µM.
Compound `O=C(Nc1nc(-c2ccc(Cl)cc2F)nc2c1cnn2-c1ccc(F)cc1)c1ccc([N+](=O)[O-])s1` [Compound 6-128, N-(6-(4-chloro-2-fluorophenyl)-1-(4-fluorophenyl)-1H-pyrazolo[3,4,d]pyrimidin-4-yl)-5-nitrothiophene-2-carboxamide] has an LC50 ([1]; Table 6, MTS) of 0.07 µM, a CC50 [2] of 0.57 µM and a CC50 [3] of 0.31 µM.
`Cn1ncc2c(NC(=O)c3ccc([N+](=O)[O-])s3)nc(/C=C/c3ccc(C(F)(F)F)cc3)nc21` [Compound 1-11, (E)-N-(1-methyl-6-(4-(trifluoromethyl)styryl)-1H-pyrazolo[3,4-d]pyrimidin-4-yl)-5-nitrothiophene-2-carboxamide] gave an LC50 ([1]; Table 1, MTS) of 1.71 µM, a CC50 [2] of 2.24 µM and a CC50 [3] of 2.62 µM.
`O=C(Nc1nc(-c2ccc(F)cc2)nc2c1cnn2-c1cccc(F)c1)c1ccc([N+](=O)[O-])s1` [Compound 6-89, N-(1-(3-fluorophenyl)-6-(4-fluorophenyl)-1H-pyrazolo[3,4-d]pyrimidin-4-yl)-5-nitrothiophene-2-carboxamide] showed an LC50 ([1]; Table 6, MTS) of 0.12 µM, a CC50 [2] of 0.81 µM and a CC50 [3] of 0.71 µM.

From patent publication US20240150356A1, “Pyrimidine amide compounds and use thereof” (ALPHALA CO., LTD., priority 2019, published 2024)
